In patent publication US20080312255A1 (ASTRAZENECA AB, priority 2007, published 2008):

Target: S. aureus GyrB ATPase (Staphylococcus aureus, UniProt P0A0K8)
Assay: S. aureus GyrB ATPase inhibition (ammonium molybdate/malachite green phosphate detection)
Type: biochemical
Details: compound concentration of 1 μM
Protocol: S. aureus GyrB ATPase Inhibition Activity: Compounds may be tested for inhibition of S. aureus GyrB ATPase activity using an ammonium molybdate/malachite green-based phosphate detection assay (Lanzetta, P. A., L. J. Alvarez, P. S. Reinach, and O. A. Candia, 1979, 100: 95-97). Assays can be performed in multiwell plates in 30 μl reactions containing: 50 mM Hepes buffer pH 7.5, 75 mM ammonium acetate, 8.0 mM magnesium chloride, 0.5 mM ethylenediaminetetraacetic acid, 5% glycerol, 1.0 mM 1,4-Dithio-DL-threitol, 200 nM bovine serum albumin, 1.0 μg/ml sheared salmon sperm DNA, 250 pM E. coli GyrA, 250 pM S. aureus GyrB, 250 μM ATP, and compound in dimethylsulfoxide. Reactions can be quenched with […] of ammonium molybdate/malachite green detection reagent containing 1.2 mM malachite green hydrochloride, 8.5 mM ammonium molybdate tetrahydrate, and 1 M hydrochloric acid. Plates can be read in an absorbance plate reader at 650 nm and percent inhibition values can be calculated using dimethylsulfoxide (2%)-containing reactions as 0% inhibition and EDTA-containing ([…]) reactions as 100% inhibition controls. An IC50 measurement of compound potency for each compound can be determined from reactions performed in the presence of 10 different compound concentrations.
Compounds of the invention were tested in an assay substantially similar to the assay described above for measuring the inhibition of S. aureus GyrB ATPase. Percent inhibition of S. aureus GyrB ATPase at a compound concentration of 1 μM (unless otherwise noted) is disclosed in the following table: […]

Sequence of S. aureus GyrB ATPase (P0AES4 whole entry): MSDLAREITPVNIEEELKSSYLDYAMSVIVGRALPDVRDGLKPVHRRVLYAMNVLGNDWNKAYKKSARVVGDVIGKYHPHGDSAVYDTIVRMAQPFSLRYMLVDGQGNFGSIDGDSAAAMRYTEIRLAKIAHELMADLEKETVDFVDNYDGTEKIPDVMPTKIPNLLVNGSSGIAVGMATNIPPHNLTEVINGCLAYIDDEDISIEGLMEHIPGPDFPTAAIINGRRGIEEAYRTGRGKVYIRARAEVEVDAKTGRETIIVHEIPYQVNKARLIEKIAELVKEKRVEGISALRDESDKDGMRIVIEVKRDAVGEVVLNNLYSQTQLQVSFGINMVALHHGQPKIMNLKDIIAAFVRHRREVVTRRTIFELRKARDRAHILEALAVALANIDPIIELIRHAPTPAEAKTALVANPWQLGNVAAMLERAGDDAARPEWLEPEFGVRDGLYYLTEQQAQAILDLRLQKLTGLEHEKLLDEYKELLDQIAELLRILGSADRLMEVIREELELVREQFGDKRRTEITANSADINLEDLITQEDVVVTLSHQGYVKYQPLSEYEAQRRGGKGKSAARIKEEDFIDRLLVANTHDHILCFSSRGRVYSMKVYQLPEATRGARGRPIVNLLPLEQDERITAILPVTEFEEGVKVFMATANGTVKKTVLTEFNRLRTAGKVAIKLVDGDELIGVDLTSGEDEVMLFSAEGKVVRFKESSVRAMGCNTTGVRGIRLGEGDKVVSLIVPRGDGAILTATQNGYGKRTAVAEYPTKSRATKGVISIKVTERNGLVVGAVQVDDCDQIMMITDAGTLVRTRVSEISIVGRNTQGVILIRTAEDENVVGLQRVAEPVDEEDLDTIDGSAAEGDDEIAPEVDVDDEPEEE
Sequence of S. aureus GyrB ATPase (P0A0K8 whole entry): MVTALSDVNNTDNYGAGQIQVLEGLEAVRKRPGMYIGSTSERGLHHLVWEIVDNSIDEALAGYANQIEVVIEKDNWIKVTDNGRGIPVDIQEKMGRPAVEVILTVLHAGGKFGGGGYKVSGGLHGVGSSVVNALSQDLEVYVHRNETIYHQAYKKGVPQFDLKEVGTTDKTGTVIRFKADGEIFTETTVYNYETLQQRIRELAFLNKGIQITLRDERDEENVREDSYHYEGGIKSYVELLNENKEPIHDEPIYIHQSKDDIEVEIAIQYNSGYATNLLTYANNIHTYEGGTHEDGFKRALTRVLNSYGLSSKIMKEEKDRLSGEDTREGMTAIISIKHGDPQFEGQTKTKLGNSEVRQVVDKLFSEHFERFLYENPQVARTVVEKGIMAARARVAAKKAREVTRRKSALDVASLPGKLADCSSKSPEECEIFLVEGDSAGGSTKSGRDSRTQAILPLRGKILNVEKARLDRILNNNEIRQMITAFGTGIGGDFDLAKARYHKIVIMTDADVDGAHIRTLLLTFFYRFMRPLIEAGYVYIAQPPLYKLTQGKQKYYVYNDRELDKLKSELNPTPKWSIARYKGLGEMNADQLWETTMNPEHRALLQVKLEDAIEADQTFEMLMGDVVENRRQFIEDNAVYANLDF

Compound	inhibition at 1 µM [%]
COC(=O)c1sc(N2CC[C@@H](NC(=O)c3[nH]c(C)c(Cl)c3Cl)[C@@H](OC)C2)nc1-c1nccs1 [Example 44]	99.6
CCOC(=O)c1sc(N2CC[C@@H](NC(=O)c3[nH]c(C)c(Cl)c3Cl)[C@@H](F)C2)nc1-c1ncccn1 [Example 45]	100
CCOC(=O)c1sc(N2CC[C@@H](NC(=O)c3[nH]c(C)c(Cl)c3Cl)[C@@H](F)C2)nc1-c1ccncn1 [Example 46]	102
COC(=O)c1sc(N2CC[C@@H](NC(=O)c3[nH]c(C)c(Cl)c3Cl)[C@@H](F)C2)nc1-c1nccs1 [Example 47]	101
CCOC(=O)c1sc(N2CC[C@@H](NC(=O)c3[nH]c(C)c(Cl)c3Cl)[C@@H](OC)C2)nc1-c1ccccn1 [Example 48]	100
CCOC(=O)c1sc(N2CC[C@@H](NC(=O)c3[nH]c(C)c(Cl)c3Cl)[C@@H](F)C2)nc1-c1ccccn1 [Example 49]	112
CCOC(=O)c1sc(N2CC[C@@H](NC(=O)c3[nH]c(C)c(Cl)c3Cl)[C@@H](OC)C2)nc1-c1cc(N(C)C)nc(N(C)C)n1 [Example 50]	97
CCOC(=O)c1sc(N2CC[C@@H](NC(=O)c3[nH]c(C)c(Cl)c3Cl)[C@@H](OC)C2)nc1-c1nc(OC)cc(OC)n1 [Example 52]	101
CCOC(=O)c1sc(N2CC[C@@H](NC(=O)c3[nH]c(C)c(Cl)c3Cl)[C@@H](OC)C2)nc1-c1cnccn1 [Example 53]	100
CCOC(=O)c1sc(N2CC[C@@H](NC(=O)c3[nH]c(C)c(Cl)c3Cl)[C@@H](OC)C2)nc1-c1nc2ccccc2s1 [Example 54]	97.8
CCOC(=O)c1sc(N2CC[C@@H](NC(=O)c3[nH]c(C)c(Cl)c3Cl)[C@@H](F)C2)nc1-c1cnccn1 [Example 55]	97.9
CCOC(=O)c1sc(N2CC[C@@H](NC(=O)c3[nH]c(C)c(Cl)c3Cl)[C@@H](F)C2)nc1-c1nc2ccccc2s1 [Example 56]	93.9
COCn1ccnc1-c1nc(N2CC[C@@H](NC(=O)c3[nH]c(C)c(Cl)c3Cl)[C@@H](OC)C2)sc1C(=O)OC [Example 58, methyl 2-((3S,4R)-4-{[(3,4-dichloro-5-methyl-1H-pyrrol-2-yl)carbonyl]amino}-3-methoxypiperidin-1-yl)-4-[1-(methoxymethyl)-1H-imidazol-2-yl]-1,3-thiazole-5-carboxylate]	99.5
COCn1ccnc1-c1nc(N2CC[C@@H](NC(=O)c3[nH]c(C)c(Cl)c3Cl)[C@@H](F)C2)sc1C(=O)OC [Example 59]	100
COC(=O)c1sc(N2CC[C@@H](NC(=O)c3[nH]c(C)c(Cl)c3Cl)[C@@H](OC)C2)nc1-c1ccno1 [Example 60]	104
COC(=O)c1sc(N2CC[C@@H](NC(=O)c3[nH]c(C)c(Cl)c3Cl)[C@@H](F)C2)nc1-c1ccno1 [Example 61]	94.7
COC(=O)c1sc(N2CC[C@@H](NC(=O)c3[nH]c(C)c(Cl)c3Cl)[C@@H](OC)C2)nc1-c1ccn[nH]1 [Example 62]	99.9
COC(=O)c1sc(N2CC[C@@H](NC(=O)c3[nH]c(C)c(Cl)c3Cl)[C@@H](F)C2)nc1-c1ccn[nH]1 [Example 63]	99.8
COCCn1ccnc1-c1nc(N2CC[C@@H](NC(=O)c3[nH]c(C)c(Cl)c3Cl)[C@@H](OC)C2)sc1C(=O)OC [Example 64]	96.2
COCCn1ccnc1-c1nc(N2CC[C@@H](NC(=O)c3[nH]c(C)c(Cl)c3Cl)[C@@H](F)C2)sc1C(=O)OC [Example 65]	98.3
COC(=O)c1sc(N2CC[C@@H](NC(=O)c3[nH]c(C)c(Cl)c3Cl)[C@@H](OC)C2)nc1-c1ncnn1C [Example 66]	101
COC(=O)c1sc(N2CC[C@@H](NC(=O)c3[nH]c(C)c(Cl)c3Cl)[C@@H](F)C2)nc1-c1ncnn1C [Example 67]	75.2
COC(=O)c1sc(N2CC[C@@H](NC(=O)c3cc(C#N)c(C)[nH]3)[C@@H](OC)C2)nc1-c1ncnn1C [Example 68]	97

Compound	inhibition at 1 µM [%]
COCCn1ccnc1-c1nc(N2CC[C@@H](NC(=O)c3[nH]c(C)c(C#N)c3Cl)[C@@H](OC)C2)sc1C(=O)OC [Example 69]	100
COC(=O)c1sc(N2CC[C@@H](NC(=O)c3[nH]c(C)c(Cl)c3Cl)[C@@H](OC)C2)nc1-c1nc(C)c(C)n1C [Example 70]	99.5
COC(=O)c1sc(N2CC[C@@H](NC(=O)c3[nH]c(C)c(Cl)c3Cl)[C@@H](OC)C2)nc1-c1csc(N)n1 [Example 71]	101
CNc1nc(-c2nc(N3CC[C@@H](NC(=O)c4[nH]c(C)c(Cl)c4Cl)[C@@H](OC)C3)sc2C(=O)OC)cs1 [Example 72]	101
COC(=O)c1sc(N2CC[C@@H](NC(=O)c3[nH]c(C)c(Cl)c3Cl)[C@@H](OC)C2)nc1-c1csc(N(C)C)n1 [Example 73]	99.9
COC(=O)c1sc(N2CC[C@@H](NC(=O)c3[nH]c(C)c(Cl)c3Cl)[C@@H](F)C2)nc1-c1csc(N)n1 [Example 74]	100
CNc1nc(-c2nc(N3CC[C@@H](NC(=O)c4[nH]c(C)c(Cl)c4Cl)[C@@H](F)C3)sc2C(=O)OC)cs1 [Example 75]	93.1
COC(=O)c1sc(N2CC[C@@H](NC(=O)c3[nH]c(C)c(Cl)c3Cl)[C@@H](F)C2)nc1-c1csc(N(C)C)n1 [Example 76]	99.2
CCOC(=O)c1sc(N2CC[C@@H](NC(=O)c3[nH]c(C)c(Cl)c3Cl)[C@@H](OC)C2)nc1-c1cn(C)cn1 [Example 77]	100
CCOC(=O)c1sc(N2CC[C@@H](NC(=O)c3[nH]c(C)c(Cl)c3Cl)[C@@H](F)C2)nc1-c1cn(C)cn1 [Example 78]	101
COC(=O)c1sc(N2CC[C@@H](NC(=O)c3[nH]c(C)c(Cl)c3Cl)[C@@H](F)C2)nc1-c1nccn1C [Example 79]	101
COC(=O)c1sc(N2CC[C@@H](NC(=O)c3[nH]c(C)c(C#N)c3Cl)[C@@H](OC)C2)nc1-c1ncnn1C [Example 80]	99.7
CCOC(=O)c1sc(N2CC[C@@H](NC(=O)c3[nH]c(C)c(Cl)c3Cl)[C@@H](OC)C2)nc1-c1ccncn1 [Example 81]	100
COC(=O)c1sc(N2CC[C@@H](NC(=O)c3[nH]c(C)c(Cl)c3Cl)[C@@H](OC)C2)nc1-c1nccc(OC)n1 [Example 82]	103
CCOC(=O)c1sc(N2CC[C@@H](NC(=O)c3[nH]c(C)c(Cl)c3Cl)[C@@H](OC)C2)nc1-c1nnco1 [Example 83]	102
CCOC(=O)c1sc(N2CC[C@@H](NC(=O)c3[nH]c(C)c(Cl)c3Cl)[C@@H](OC)C2)nc1-c1nc(C)no1 [Example 84]	103
CCOC(=O)c1sc(N2CC[C@@H](NC(=O)c3[nH]c(C)c(Cl)c3Cl)[C@@H](OC)C2)nc1-c1nnc(C)o1 [Example 85, Ethyl 2-((3S,4R)-4-{[(3,4-dichloro-5-methyl-1H-pyrrol-2-yl)carbonyl]amino}-3-methoxypiperidin-1-yl)-4-(5-methyl-1,3,4-oxadiazol-2-yl)-1,3-thiazole-5-carboxylate]	102
COC(=O)c1sc(N2CC[C@@H](NC(=O)c3[nH]c(C)c(Cl)c3Cl)[C@@H](OC)C2)nc1-c1ncc[nH]1 [Example 86, Methyl 2-((3S,4R)-4-{[(3,4-dichloro-5-methyl-1H-pyrrol-2-yl)carbonyl]amino}-3-methoxypiperidin-1-yl)-4-(1H-imidazol-2-yl)-1,3-thiazole-5-carboxylate]	99.9
COC(=O)c1sc(N2CC[C@@H](NC(=O)c3[nH]c(C)c(Cl)c3Cl)[C@@H](F)C2)nc1-c1ncc[nH]1 [Example 87]	71
CO[C@H]1CN(c2nc(-c3nnc(C)o3)c(C(=O)O)s2)CC[C@H]1NC(=O)c1[nH]c(C)c(Cl)c1Cl [Example 90, 2-((3S,4R)-4-{[(3,4-Dichloro-5-methyl-1H-pyrrol-2-yl)carbonyl]amino}-3-methoxypiperidin-1-yl)-4-(5-methyl-1,3,4-oxadiazol-2-yl)-1,3-thiazole-5-carboxylic acid]	101
COC(=O)c1sc(N2CC[C@@H](NC(=O)c3[nH]c(C)c(Cl)c3Cl)[C@@H](OC)C2)nc1-c1cn(C)nn1 [Example 92, methyl 2-((3S,4R)-4-(3,4-dichloro-5-methyl-1H-pyrrole-2-carboxamido)-3-methoxypiperidin-1-yl)-4-(1-methyl-1H-1,2,3-triazol-4-yl)thiazole-5-carboxylate]	100
COC(=O)c1sc(N2CC[C@@H](NC(=O)c3[nH]c(C)c(Cl)c3Cl)[C@@H](OC)C2)nc1-c1ncc(C)nc1C [Example 93, methyl 2-((3S,4R)-4-(3,4-dichloro-5-methyl-1H-pyrrole-2-carboxamido)-3-methoxypiperidin-1-yl)-4-(3,5-dimethylpyrazin-2-yl)thiazole-5-carboxylate]	99.3
COC(=O)c1sc(N2CC[C@@H](NC(=O)c3[nH]c(C)c(Cl)c3Cl)[C@@H](OC)C2)nc1-c1cccc(OC)n1 [Example 94, methyl 2-((3S,4R)-4-(3,4-dichloro-5-methyl-1H-pyrrole-2-carboxamido)-3-methoxypiperidin-1-yl)-4-(6-methoxypyridin-2-yl)thiazole-5-carboxylate]	106
